Literature values as cited in patent publication US20080286363A1, “Pharmaceutical Compositions for the Treatment of Inflammatory and Obstructive Airways Diseases” (priority 2005, published 2008).

Settings: aerosol formulation, single administration of a metered dose, asthma

Compound: C[N+]1(C)CCC(OC(=O)C(O)(c2ccccc2)C2CCCC2)C1.[Br-] (racemic) [Compound B1, 3-[(Cyclopentyl-hydroxyphenylacetyl)oxy]-1,1-dimethylpyrrolidinium bromide]
- bronchodilation duration: up to 12 hours
